Key:
Format in all cases: cell-based
[1] = system: paxillin; assay: paxillin electrophoretic mobility by immunoblotting, MDCK I cells; conditions: 200 nM PDB, 30 minutes
Protocol: The migration of the cellular proteins p100 and p120 during electrophoresis is increased following PDB-treatment of MDCK I cells. PDB (phorbol-12,13-dibutyrate) is a pharmacological activator of protein kinase C. MDCK I cells are a kidney derived epithelial cell line, with particularly well developed junctional complexes. Cells treated for 30 minutes with either 200 nM PDB (+) or vehicle (−) were then lysed into Laemmli sample buffer, and separated by electrophoresis using 6% acrylamide gels. Proteins were transferred to nitrocellulose and probed with antibodies to p100/p120, and then reprobed with E-cadherin and paxillin antibodies.
Cell extracts or immunoprecipitates in SDS sample buffer were resolved by SDS-PAGE. The slab gels were then equilibrated in buffer comprising; 48 mM Tris, 39 mM glycine, 20% methanol and 0.03% SDS. Proteins were transferred to nitrocellulose filters (Hybond ECL; Amersham), which were Ponceau S stained and then blocked for 2 hours at 37° C. with 1% BSA in PBS containing 0.05% Tween-20. Filters were then probed with p120 antibody, at a dilution of 1:2500. […] The filters were then extensively washed in PBS/0.5% Tween-20, and immunoreactive bands were detected by enhanced chemiluminescence (Amersham) following the manufacturers instructions.

[2] = system: p100/p120; assay: p100/p120 electrophoretic mobility, primary pig brain endothelial cells (PBECs); conditions: PBECs, 200 nM PDB, 30 minutes
Protocol: Cells were treated with or without 200 nM PDB for 30 minutes, lysed into Laemmli sample buffer, separated by electrophoresis and analysed by immunoblotting with antibodies recognising p100 and p120.
MDCK strain I and II cells were provided by Barry Gumbiner (memorial Sloan-Kettering Cancer Center, NY). LLC-PK1 and Caco-2 cells were obtained from the European Collection of Animal Cell Cultures. All cells were maintained at 37° C. under 5% CO2 in humidified air. MDCK strain I and II cells were maintained in MEM containing 10% FCS, 100 U/ml penicillin, 100 μg/ml streptomycin and 2 mM L-glutamine. Caco-2 cells were maintained in MEM containing 15% FCS, 1% non-essential amino acids and 1 μg/ml bovine insulin (Sigma I-6634). LLC-PK1 cells were grown in M199 (Gibco), 10% FCS, 100 U/ml penicillin, 100 μg/ml streptomycin and 2 mM L-glutamine. For whole cell lysate analysis, 10^5 cells were plated on 6.5 mm diameter, 0.4 μm, polycarbonate Transwell filters from Costar, in 0.25 ml of medium. The basolateral chamber contained 0.75 ml of medium. For immunoprecipitation, 5×10^5 cells were plated onto 24 mm Transwell filters, in 2 ml of medium, with 3 ml of medium in the lower chamber. Cells were used 4-7 days after plating. Tissue culture materials were from Gibco. Porcine brain endothelial cells were isolated and grown by modifications of a previously published procedure (Rubin et al., 1991). Brain capillary fragments were plated on dishes coated with rat tail collagen and human fibronectin. The cultures were fed every other day with growth medium composed of 50% astrocyte-conditioned medium and 50% Dulbecco's Modified Eagle Medium containing 10% plasma-derived serum, 125 μg/ml heparin, antibiotics and glutamine. They were incubated in a humidified atmosphere of 10% CO2 at 37° C. When the endothelial cells were approximately 50% confluent (after 4-6 days in culture), they were trypsinized and plated onto collagen-coated polycarbonate Transwell filters (6.5 mm diameter, 0.4 μm pore size, tissue culture treated, Costar Corp, Cambridge, Mass., U.S.A.) in the same medium (250 μl apically, 750 μl basolaterally). After 2-3 days on filters, the medium was switched to a 1:1 mixture of astrocyte-conditioned medium and a Dulbecco's Modified Eagle Medium-based, chemically defined medium (‘N2’, Rubin et al., 1991; Bottenstein and Sato, 1979). The final concentration of plasma-derived serum was 5%. Human umbilical vein endothelial cells were from Clonetics.
Whole cell lysates were prepared by rapidly replacing the culture medium in 6.5 mm with hot Laemmli sample buffer, followed by heating at 100° C. for 5 minutes. Immunoprecipitations were carried out at 4° C. Confluent monolayers of cells were washed rapidly with ice cold PBS (containing 0.9 mM CaCl2 and 0.5 mM MgCl2) before addition of 0.5 ml of the appropriate buffer. The filters were then gently scraped, and the lysate was removed and centrifuged at 14000× g. The supernatant was precleared with 10% (w/v) protein A-Sepharose in lysis buffer for 30-60 minutes. Appropriate primary antibodies were added to the lysate, and after 2-3 hours the immunecomplex was isolated, using rabbit anti-mouse secondary antibodies (Jackson Immunoresearch Labs Inc., West Grove, Pa.) and protein A-Sepharose.

[3] = system: p100/p120; assay: [32P]orthophosphate labelling and immunoprecipitation of p100/p120, MDCK I cells
Protocol: PDB induces dephosphorylation of p100 and p120. We investigated the possibility that the altered pattern of migration during electrophoresis of p100 and p120 following treatment with PDB is due to a change in the phosphorylation state of these proteins. MDCK I cells were metabolically labelled with [^32P]orthophosphate, treated with or without 200 nM PDB, and the p100 and p120 isolated by immunoprecipitation with antibodies recognising p100 and p120. This immunoprecipitation was carried out under buffer conditions which removed any associated proteins from p100 and p120. Protein was separated by electrophoresis, transferred to nitrocellulose filters, and exposed to film (Example 6A). The greater the amount of radioactive phosphate incorporated into the protein, the greater the signal on the film. […] To normalise for slight differences in protein loading, the same filters were then probed with p100/p120 antibody, and the level of p100/p120 protein determined by densitometry. Thus, the amount of phosphate per unit protein could be calculated. […]
MDCK I cells grown to confluence on 24 mm filters were incubated overnight in phosphate-free MEM, containing 0.5% serum (dialysed against 0.9% NaCl and 10 mM Hepes (pH 7.5)) and 100 μCi/ml [^32P]orthophosphate (Amersham). […] Filters were then probed with p120 antibodies, and the resulting ECL exposure scanned in the same way, to quantify protein loading.

For CCCC(=O)O[C@@H]1[C@@H](C)[C@@]2(O)[C@@H](C=C(CO)C[C@]3(O)C(=O)C(C)=C[C@@H]23)[C@@H]2C(C)(C)[C@]12OC(=O)CCC [PDB, Phorbol-12,13-dibutyrate], the “effect on paxillin migration (phosphorylation)” value [1] was “upward band shift”, the “mobility of p100 and p120” value [2] was “the mobility of p100 and p120 increased” and the “phosphate content of p100/p120, of that in untreated cells (mean±s.d.)” value ([3]; 200 nM PDB 30 minutes, seven independent sets of experiments) was 58±11%. The “phosphate in p100/p120 lost” value ([3]; 200 nM PDB, single experiment (FIG. 7B), normalised for protein) was “approximately 40%”.

Source: patent US6407058B1, “Modifying the permeability of physiological barriers” (Eisai Co., Limited, priority 1996, dated 2002)
